Test results reported in PubChem BioAssay (NCI).
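Five compound concentrations were applied to cells in 96-well plates for 48 hours; endpoints were derived by simple linear interpolation of the resulting dose-response curve. Abbreviation: GI50, concentration required for 50% inhibition of growth. At the TGI there is no net growth.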

Experiments:
Experiment in all cases: DTP human tumour cell line panel, 48 h
A498 renal = system: A498 renal
NCI/ADR-RES ovarian = system: NCI/ADR-RES ovarian
ACHN renal = system: ACHN renal
HT29 colon = system: HT29 colon
MOLT-4 leukemia = system: MOLT-4 leukemia
SK-MEL-28 melanoma = system: SK-MEL-28 melanoma
RXF 393 renal = system: RXF 393 renal
A549 NSCLC = system: A549 NSCLC
MALME-3M melanoma = system: MALME-3M melanoma
UACC-62 melanoma = system: UACC-62 melanoma

SMILES | GI50 (A498 renal) [µM] | TGI (A498 renal) [µM] | GI50 (NCI/ADR-RES ovarian) [µM] | TGI (NCI/ADR-RES ovarian) [µM] | GI50 (ACHN renal) [µM] | TGI (ACHN renal) [µM] | GI50 (HT29 colon) [µM] | TGI (HT29 colon) [µM] | GI50 (MOLT-4 leukemia) [µM] | TGI (MOLT-4 leukemia) [µM] | GI50 (SK-MEL-28 melanoma) [µM] | TGI (SK-MEL-28 melanoma) [µM] | GI50 (RXF 393 renal) [µM] | TGI (RXF 393 renal) [µM] | GI50 (A549 NSCLC) [µM] | TGI (A549 NSCLC) [µM] | GI50 (MALME-3M melanoma) [µM] | TGI (MALME-3M melanoma) [µM] | GI50 (UACC-62 melanoma) [µM] | TGI (UACC-62 melanoma) [µM]
COC(=O)Nc1nc2ccc(C(=O)c3cccc(I)c3)cc2[nH]1 | 0.0434 | 0.614 | 0.0448 | 1.54 | 0.13 | 21.1 | 0.0375 | 26 | 0.0609 | 10.6 | 1.13 | > 81.2 | 0.0494 | 1.05 | 0.0699 | 15 | 0.274 | 24.1 | 0.234 | 18.1
CC(=O)OC1CC2(C)C(=CC1C1SCCS1)CCC1C2CCC2(C)C(OC(C)=O)CCC12 (stereo not given) |  | > 100 |  | > 100 |  | > 100 |  | > 100 |  | > 100 |  | > 100 |  | 67.3 |  | > 100 |  | > 100 |  | > 100
Clc1cnc(Nc2ccc(OCCN3CCCC3)cc2)nc1NCc1ccco1 | 1.45 | 3.88 | 3.15 | 9.53 | 2.37 | 26.4 | 2.19 | 9.18 | 1.86 | 8.4 | 3.29 | 10.7 | 1.25 | 3.24 | 2.56 | 16.3 | 2.1 | 5.79 | 1.83 | 3.73
NC1CC(=O)c2c(-c3cccs3)sc(-c3cccs3)c21 (stereo not given) | 77.8 | > 100 | 29.5 | > 100 | 10 | 25.5 | 19.5 | 50.1 | 18.5 | > 100 | 19.2 | 39.7 | 59.1 | > 100 | 53.2 | > 100 | 37.8 | > 100 | 55.9 | > 100
COc1cc2ncnc(Oc3ccc(NC(=O)Nc4ccc(CN5CCOCC5)c(C(F)(F)F)c4)c4ccccc34)c2cc1OC | 0.0424 | 0.584 | 0.919 | 21 | 0.303 | 1.41 | 0.547 | 10.3 | 0.199 | 2.08 | 0.666 | 3.03 | 0.692 | 5.69 | 0.734 | 10.5 | 0.302 | 1.54 | 0.637 | 3
